According to the supplement of paper PMC10307832:

Assays:
Experiment in all cases: relative viability (nuclei count vs DMSO), 5 days (fraction); higher = more cells survive
[1] = compound: Nc1ccn([C@@H]2O[C@H](CO)[C@@H](O)C2(F)F)c(=O)n1 [Gemcitabine] + Cc1nc(NC(=O)N2CCC[C@H]2C(N)=O)sc1-c1ccnc(C(C)(C)C(F)(F)F)c1 [Alpelisib] (partner 2 µM)
Method in brief: (§1)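 Each reported value is a median over duplicate plates. It expresses relative viability: treated-well nuclei count divided by vehicle-well nuclei count. Lung cancer cell lines in 1536-well plates were dosed by pin tool a day after seeding, alone with one drug or with a fixed anchor-drug dose plus five library-drug doses (not always all listed) in √10 steps, and nuclei were counted after 5 days.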

[2] = compound: Nc1ccn([C@@H]2O[C@H](CO)[C@@H](O)C2(F)F)c(=O)n1 [Gemcitabine] + Nc1nc2[nH]cc(CCc3ccc(C(=O)N[C@@H](CCC(=O)O)C(=O)O)cc3)c2c(=O)[nH]1 [Pemetrexed] (partner 0.2 µM)
Method in brief: as §1

[3] = compound: Nc1ccn([C@@H]2O[C@H](CO)[C@@H](O)C2(F)F)c(=O)n1 [Gemcitabine] + COc1cc2c(Oc3ccc(NC(=O)C4(C(=O)Nc5ccc(F)cc5)CC4)cc3F)ccnc2cc1OCCCN1CCOCC1 [Foretinib] (partner 0.25 µM)
Method in brief: as §1

[4] = compound: Nc1ccn([C@@H]2O[C@H](CO)[C@@H](O)C2(F)F)c(=O)n1 [Gemcitabine] + O=C(c1cc(Cc2n[nH]c(=O)c3ccccc23)ccc1F)N1CCN(C(=O)C2CC2)CC1 [Olaparib] (partner 8 µM)
Method in brief: as §1

Cell Line | relative viability ([1]; first compound 0.001 µM) | relative viability ([1]; first compound 0.003162 µM) | relative viability ([1]; first compound 0.01 µM) | relative viability ([1]; first compound 0.03162 µM) | relative viability ([1]; first compound 0.1 µM) | relative viability ([2]; first compound 0.001 µM) | relative viability ([2]; first compound 0.003162 µM) | relative viability ([2]; first compound 0.01 µM) | relative viability ([2]; first compound 0.03162 µM) | relative viability ([2]; first compound 0.1 µM) | relative viability ([3]; first compound 0.001 µM) | relative viability ([3]; first compound 0.003162 µM) | relative viability ([3]; first compound 0.01 µM) | relative viability ([3]; first compound 0.03162 µM) | relative viability ([3]; first compound 0.1 µM) | relative viability ([4]; first compound 0.001 µM) | relative viability ([4]; first compound 0.003162 µM) | relative viability ([4]; first compound 0.01 µM) | relative viability ([4]; first compound 0.03162 µM) | relative viability ([4]; first compound 0.1 µM)
H3255 | 0.8 | 0.403 | 0.472 | 0.185 | 0.168 | 0.565 | 0.519 | 0.591 | 0.335 | 0.224 | 1.04 | 0.666 | 0.782 | 0.273 | 0.229 | 0.573 | 0.528 | 0.451 | 0.269 | 0.242
EPLC-272H | 1.04 | 0.809 | 0.541 | 0.304 | 0.1 | 0.316 | 0.33 | 0.132 | 0.178 | 0.108 | 0.636 | 0.815 | 0.416 | 0.075 | 0.0466 | 0.967 | 0.545 | 0.221 | 0.0733 | 0.0557
PC-3 [JPC-3] | 1.13 | 0.736 | 0.649 | 0.264 | 0.248 | 1.23 | 0.566 | 0.434 | 0.414 | 0.31 | 1.15 | 0.847 | 0.605 | 0.28 | 0.228 | 1.24 | 0.614 | 0.49 | 0.478 | 0.349
NCI-H1793 | 0.706 | 0.594 | 0.354 | 0.156 | 0.147 | 1.09 | 0.98 | 0.406 | 0.139 | 0.141 | 0.71 | 0.652 | 0.437 | 0.141 | 0.136 | 0.807 | 0.93 | 0.159 | 0.137 | 0.105
EKVX | 0.93 | 0.77 | 0.454 | 0.147 | 0.132 | 0.351 | 0.333 | 0.133 | 0.151 | 0.14 | 0.788 | 0.457 | 0.173 | 0.246 | 0.113 | 0.898 | 0.672 | 0.289 | 0.174 | 0.11
ChaGo-K-1 | – | – | – | – | – | 0.247 | 0.23 | 0.23 | 0.209 | 0.183 | 0.901 | 0.815 | 0.428 | 0.213 | 0.191 | 0.471 | 0.452 | 0.22 | 0.182 | 0.146
NCI-H23 | 0.57 | 0.242 | 0.108 | 0.129 | 0.115 | 0.555 | 0.223 | 0.147 | 0.143 | 0.143 | 0.751 | 0.441 | 0.178 | 0.163 | 0.131 | 0.293 | 0.132 | 0.0825 | 0.109 | 0.0995
EMC-BAC-2 | 0.726 | 0.768 | 0.627 | 0.12 | 0.0893 | 0.439 | 0.454 | 0.389 | 0.27 | 0.292 | 1.03 | 1.03 | 0.885 | 0.201 | 0.201 | 0.534 | 0.578 | 0.316 | 0.181 | 0.201
LOU-NH91 | 0.726 | 0.515 | 0.457 | 0.316 | 0.263 | 0.397 | 0.413 | 0.441 | 0.269 | 0.286 | 0.965 | 0.69 | 0.591 | 0.332 | 0.209 | 0.92 | 0.781 | 0.501 | 0.223 | 0.264
LU99A | 0.506 | 0.576 | 0.515 | 0.505 | 0.481 | 0.177 | 0.181 | 0.186 | 0.198 | 0.214 | 0.856 | 0.791 | 0.858 | 0.819 | 0.812 | 0.255 | 0.272 | 0.286 | 0.226 | 0.221
NCI-H1395 | 1.19 | 0.815 | 0.459 | 0.369 | 0.406 | 0.91 | 0.622 | 0.335 | 0.296 | 0.312 | 0.922 | 0.763 | 0.541 | 0.388 | 0.349 | 0.438 | 0.452 | 0.423 | 0.351 | 0.34
NCI-H460 | 0.684 | 0.484 | 0.0473 | 0.0144 | 0.0066 | 0.06 | 0.0638 | 0.0721 | 0.029 | 0.019 | 0.935 | 1.01 | 0.832 | 0.0311 | 0.0132 | 0.529 | 0.426 | 0.333 | 0.0343 | 0.022
201T | 0.939 | 0.97 | 0.943 | 0.396 | 0.331 | 0.291 | 0.327 | 0.288 | 0.254 | 0.286 | 1.06 | 0.994 | 0.914 | 0.217 | 0.177 | 0.884 | 0.844 | 0.826 | 0.302 | 0.262
NCI-H1944 | 0.855 | 0.845 | 0.783 | 0.366 | 0.14 | 0.586 | 0.601 | 0.554 | 0.254 | 0.112 | 0.891 | 0.992 | 0.847 | 0.345 | 0.199 | 0.459 | 0.469 | 0.358 | 0.21 | 0.134
NCI-H2405 | 0.753 | 0.588 | 0.287 | 0.196 | 0.179 | 1 | 0.91 | 0.552 | 0.228 | 0.184 | 0.996 | 1 | 0.676 | 0.254 | 0.229 | 0.842 | 0.766 | 0.361 | 0.23 | 0.179
NCI-H1703 | 0.274 | 0.178 | 0.107 | 0.113 | 0.117 | – | – | – | – | – | 0.277 | 0.238 | 0.185 | 0.175 | 0.167 | 0.359 | 0.266 | 0.0911 | 0.119 | 0.105
NCI-H1755 | 0.897 | 0.919 | 0.768 | 0.25 | 0.215 | 0.414 | 0.47 | 0.319 | 0.376 | 0.355 | 1 | 0.909 | 0.879 | 0.564 | 0.29 | 0.872 | 0.887 | 0.787 | 0.425 | 0.278
